From patent US20240124417A1, “COMPOUNDS USEFUL AS IMMUNOMODULATORS” (Bristol-Myers Squibb Company, priority 2019, published 2024)

Target: T1, PD-1/PD-L1 (Homo sapiens, UniProt Q9NZQ7)
T1 construct: TVMV protease site linker (C); made in house; host or cells: HEK293T cells
Experiment: PD-1/PD-L1 Homogenous Time-Resolved Fluorescence (HTRF) binding assay
Conditions: PD-L1-His 10 nM, PD-1-Ig 20 nM
Procedure, shortened: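 Inhibitors pre-incubated 15 min with PD-L1-His extracellular domain (10 nM final) in dPBS with 0.1% BSA and 0.05% Tween-20, then PD-1-Ig (20 nM final) added for a further 15 min. Read-out by HTRF with europium cryptate anti-Ig (1 nM) and APC anti-His (20 nM). Related pairs: PD-1-Ig/PD-L2-His (20/5 nM), CD80-His/PD-L1-Ig (100/10 nM).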

T1 sequence (Q9NZQ7 18-239): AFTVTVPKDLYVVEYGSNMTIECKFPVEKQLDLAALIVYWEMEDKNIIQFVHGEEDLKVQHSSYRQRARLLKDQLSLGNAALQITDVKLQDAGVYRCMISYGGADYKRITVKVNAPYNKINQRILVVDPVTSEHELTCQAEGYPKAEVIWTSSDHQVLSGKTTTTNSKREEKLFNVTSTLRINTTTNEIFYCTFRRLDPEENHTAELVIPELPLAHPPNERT

Row | SMILES | IC50 [nM]
1 | Cc1n[nH]c(C)c1CN(C)Cc1cc(Cl)c(OCc2cccc(-c3cccc(OCCCN4CC[C@@H](O)C4)c3C)c2C)cc1OCc1cncc(C#N)c1 [Example 2572, (R)-5-((4-chloro-2-((((3,5-dimethyl-1H-pyrazol-4-yl)methyl)(methyl)amino)methyl)-5-((3′-(3-(3-hydroxypyrrolidin-1-yl)propoxy)-2,2′-dimethyl-[1,1′-biphenyl]-3-yl)methoxy)phenoxy)methyl)nicotinonitrile] | 3.3
2 | Cc1c(COc2cc(OCc3cncc(C#N)c3)c(CNCc3ncc[nH]3)cc2Cl)cccc1-c1cccc(OCC2CCCN(C)C2)c1Cl (stereo not shown) [Example 2577, 5-((2-((((1H-imidazol-2-yl)methyl)amino)methyl)-4-chloro-5-((2′-chloro-2-methyl-3′-((1-methylpiperidin-3-yl)methoxy)-[1,1′-biphenyl]-3-yl)methoxy)phenoxy)methyl)nicotinonitrile] | 1.6
3 | Cc1c(COc2cc(OCc3cncc(C#N)c3)c(CNCc3ncn[nH]3)cc2Cl)cccc1-c1cccc(OCC2CCCN(C)C2)c1Cl (stereo not shown) [Example 2578, 5-((2-((((1H-1,2,4-triazol-5-yl)methyl)amino)methyl)-4-chloro-5-((2′-chloro-2-methyl-3′-((1-methylpiperidin-3-yl)methoxy)-[1,1′-biphenyl]-3-yl)methoxy)phenoxy)methyl)nicotinonitrile] | 1.9
4 | Cc1c(COc2cc(OCc3cncc(C#N)c3)c(CNCCc3c[nH]cn3)cc2Cl)cccc1-c1cccc(OCC2CCCN(C)C2)c1Cl (stereo not shown) [Example 2580, 5-((2-(((2-(1H-imidazol-4-yl)ethyl)amino)methyl)-4-chloro-5-((2′-chloro-2-methyl-3′-((1-methylpiperidin-3-yl)methoxy)-[1,1′-biphenyl]-3-yl)methoxy)phenoxy)methyl)nicotinonitrile] | 0.2
5 | Cc1c(COc2cc(OCc3cncc(C#N)c3)c(CN(C)Cc3cn[nH]c3)cc2Cl)cccc1-c1cccc(OCC2CCCN(C)C2)c1Cl (stereo not shown) [Example 2581, 5-((2-((((1H-pyrazol-4-yl)methyl)(methyl)amino)methyl)-4-chloro-5-((2′-chloro-2-methyl-3′-((1-methylpiperidin-3-yl)methoxy)-[1,1′-biphenyl]-3-yl)methoxy)phenoxy)methyl)nicotinonitrile] | 3.4
6 | Cc1c(COc2cc(OCc3cncc(C#N)c3)c(CNCCc3cc[nH]n3)cc2Cl)cccc1-c1cccc(OCC2CCCN(C)C2)c1Cl (stereo not shown) [Example 2582, 5-((2-(((2-(1H-pyrazol-3-yl)ethyl)amino)methyl)-4-chloro-5-((2′-chloro-2-methyl-3′-((1-methylpiperidin-3-yl)methoxy)-[1,1′-biphenyl]-3-yl)methoxy)phenoxy)methyl)nicotinonitrile] | 3.7
7 | Cc1c(COc2cc(OCc3cncc(C#N)c3)c(CN3CCc4[nH]cnc4C3)cc2Cl)cccc1-c1cccc(OCC2CCCN(C)C2)c1Cl (stereo not shown) [Example 2583, 5-((4-chloro-5-((2′-chloro-2-methyl-3′-((1-methylpiperidin-3-yl)methoxy)-[1,1′-biphenyl]-3-yl)methoxy)-2-((1,4,6,7-tetrahydro-5H-imidazo[4,5-c]pyridin-5-yl)methyl)phenoxy)methyl)nicotinonitrile] | 2.3
8 | Cc1c(COc2cc(OCc3cncc(C#N)c3)c(CNCc3nccs3)cc2Cl)cccc1-c1cccc(OCC2CCCN(C)C2)c1Cl (stereo not shown) [Example 2585, 5-((4-chloro-5-((2′-chloro-2-methyl-3′-((1-methylpiperidin-3-yl)methoxy)-[1,1′-biphenyl]-3-yl)methoxy)-2-(((thiazol-2-ylmethyl)amino)methyl)phenoxy)methyl)nicotinonitrile] | 2.8
9 | Cc1c(COc2cc(OCc3cncc(C#N)c3)c(CNCc3csc(N)n3)cc2Cl)cccc1-c1cccc(OCC2CCCN(C)C2)c1Cl (stereo not shown) [Example 2586, 5-((2-((((2-aminothiazol-4-yl)methyl)amino)methyl)-4-chloro-5-((2′-chloro-2-methyl-3′-((1-methylpiperidin-3-yl)methoxy)-[1,1′-biphenyl]-3-yl)methoxy)phenoxy)methyl)nicotinonitrile] | 0.7
10 | Cc1c(COc2cc(OCc3cncc(C#N)c3)c(CNCc3cc[nH]n3)cc2Cl)cccc1-c1cccc(OCC2CCCN(C)C2)c1Cl (stereo not shown) [Example 2588, 5-((2-((((1H-pyrazol-3-yl)methyl)amino)methyl)-4-chloro-5-((2′-chloro-2-methyl-3′-((1-methylpiperidin-3-yl)methoxy)-[1,1′-biphenyl]-3-yl)methoxy)phenoxy)methyl)nicotinonitrile] | 2
11 | Cc1c(COc2cc(OCc3cncc(C#N)c3)c(CN3CCc4cn[nH]c4C3)cc2Cl)cccc1-c1cccc(OCC2CCCN(C)C2)c1Cl (stereo not shown) [Example 2589, 5-((4-chloro-5-((2′-chloro-2-methyl-3′-((1-methylpiperidin-3-yl)methoxy)-[1,1′-biphenyl]-3-yl)methoxy)-2-((1,4,5,7-tetrahydro-6H-pyrazolo[3,4-c]pyridin-6-yl)methyl)phenoxy)methyl)nicotinonitrile] | 7.9
12 | Cc1c(COc2cc(OCc3cncc(C#N)c3)c(CNCc3ncco3)cc2Cl)cccc1-c1cccc(OCC2CCCN(C)C2)c1Cl (stereo not shown) [Example 2590, 5-((4-chloro-5-((2′-chloro-2-methyl-3′-((1-methylpiperidin-3-yl)methoxy)-[1,1′-biphenyl]-3-yl)methoxy)-2-(((oxazol-2-ylmethyl)amino)methyl)phenoxy)methyl)nicotinonitrile] | 2
13 | Cc1c(COc2cc(OCc3cncc(C#N)c3)c(CNCCc3nc4ccccc4[nH]3)cc2Cl)cccc1-c1cccc(OCC2CCCN(C)C2)c1Cl (stereo not shown) [Example 2593, 5-((2-(((2-(1H-benzo[d]imidazol-2-yl)ethyl)amino)methyl)-4-chloro-5-((2′-chloro-2-methyl-3′-((1-methylpiperidin-3-yl)methoxy)-[1,1′-biphenyl]-3-yl)methoxy)phenoxy)methyl)nicotinonitrile] | 3

More lines, in order of falling IC50, values ahead:

Row | IC50 [nM] | SMILES
14 | 3.6 | Cc1c(COc2cc(OCc3cncc(C#N)c3)c(CN3CCc4c(ncn4C)C3)cc2Cl)cccc1-c1cccc(OCC2CCCN(C)C2)c1Cl (stereo not shown) [Example 2592, 5-((4-chloro-5-((2′-chloro-2-methyl-3′-((1-methylpiperidin-3-yl)methoxy)-[1,1′-biphenyl]-3-yl)methoxy)-2-((1-methyl-1,4,6,7-tetrahydro-5H-imidazo[4,5-c]pyridin-5-yl)methyl)phenoxy)methyl)nicotinonitrile]
15 | 2.8 | Cc1cc(CNCc2cc(Cl)c(OCc3cccc(-c4cccc(OCC5CCCN(C)C5)c4Cl)c3C)cc2OCc2cncc(C#N)c2)no1 (stereo not shown) [Example 2575, 5-((4-chloro-5-((2′-chloro-2-methyl-3′-((1-methylpiperidin-3-yl)methoxy)-[1,1′-biphenyl]-3-yl)methoxy)-2-((((5-methylisoxazol-3-yl)methyl)amino)methyl)phenoxy)methyl)nicotinonitrile]
16 | 2.6 | Cc1c(COc2cc(OCc3cncc(C#N)c3)c(CNCc3cncnc3)cc2Cl)cccc1-c1cccc(OCC2CCCN(C)C2)c1Cl (stereo not shown) [Example 2584, 5-((4-chloro-5-((2′-chloro-2-methyl-3′-((1-methylpiperidin-3-yl)methoxy)-[1,1′-biphenyl]-3-yl)methoxy)-2-(((pyrimidin-5-ylmethyl)amino)methyl)phenoxy)methyl)nicotinonitrile]
17 | 2.5 | Cc1c(COc2cc(OCc3cncc(C#N)c3)c(CNCc3cncs3)cc2Cl)cccc1-c1cccc(OCC2CCCN(C)C2)c1Cl (stereo not shown) [Example 2576, 5-((4-chloro-5-((2′-chloro-2-methyl-3′-((1-methylpiperidin-3-yl)methoxy)-[1,1′-biphenyl]-3-yl)methoxy)-2-(((thiazol-5-ylmethyl)amino)methyl)phenoxy)methyl)nicotinonitrile]
18 | 2 | COCc1noc(CNCc2cc(Cl)c(OCc3cccc(-c4cccc(OCC5CCCN(C)C5)c4Cl)c3C)cc2OCc2cncc(C#N)c2)n1 (stereo not shown) [Example 2595, 5-((4-chloro-5-((2′-chloro-2-methyl-3′-((1-methylpiperidin-3-yl)methoxy)-[1,1′-biphenyl]-3-yl)methoxy)-2-((((3-(methoxymethyl)-1,2,4-oxadiazol-5-yl)methyl)amino)methyl)phenoxy)methyl)nicotinonitrile]
19 | 1.9 | Cc1c(COc2cc(OCc3cncc(C#N)c3)c(CNCc3cnco3)cc2Cl)cccc1-c1cccc(OCC2CCCN(C)C2)c1Cl (stereo not shown) [Example 2591, 5-((4-chloro-5-((2′-chloro-2-methyl-3′-((1-methylpiperidin-3-yl)methoxy)-[1,1′-biphenyl]-3-yl)methoxy)-2-(((oxazol-5-ylmethyl)amino)methyl)phenoxy)methyl)nicotinonitrile]
20 | 0.9 | Cc1c(COc2cc(OCc3cncc(C#N)c3)c(CN3CCc4[nH]ncc4C3)cc2Cl)cccc1-c1cccc(OCC2CCCN(C)C2)c1Cl (stereo not shown) [Example 2587, 5-((4-chloro-5-((2′-chloro-2-methyl-3′-((1-methylpiperidin-3-yl)methoxy)-[1,1′-biphenyl]-3-yl)methoxy)-2-((1,4,6,7-tetrahydro-5H-pyrazolo[4,3-c]pyridin-5-yl)methyl)phenoxy)methyl)nicotinonitrile]
21 | 0.7 | Cc1ncsc1CCNCc1cc(Cl)c(OCc2cccc(-c3cccc(OCC4CCCN(C)C4)c3Cl)c2C)cc1OCc1cncc(C#N)c1 (stereo not shown) [Example 2594, 5-((4-chloro-5-((2′-chloro-2-methyl-3′-((1-methylpiperidin-3-yl)methoxy)-[1,1′-biphenyl]-3-yl)methoxy)-2-(((2-(4-methylthiazol-5-yl)ethyl)amino)methyl)phenoxy)methyl)nicotinonitrile]
22 | 0.5 | Cc1c(COc2cc(OCc3cncc(C#N)c3)c(CNCCc3ncn[nH]3)cc2Cl)cccc1-c1cccc(OCC2CCCN(C)C2)c1Cl (stereo not shown) [Example 2579, 5-((2-(((2-(1H-1,2,4-triazol-5-yl)ethyl)amino)methyl)-4-chloro-5-((2′-chloro-2-methyl-3′-((1-methylpiperidin-3-yl)methoxy)-[1,1′-biphenyl]-3-yl)methoxy)phenoxy)methyl)nicotinonitrile]
